Test results from US20230131899A1, “INHIBITORS OF MICROBIALLY INDUCED AMYLOID” (Axial Therapeutics, Inc., priority 2020, published 2023).
Read-outs that look alike come from different tables or passages of the source.

Tested on: CsgA gene expression (csgBAC promoter-GFP reporter) in E. coli UTI89
Assay: In vitro live cell fluorescent reporter assay of CsgA transcription (Reporter Assay)
Type: cell-based
Details: Escherichia coli
In short: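 Compounds at 0.14–100 μM (1% DMSO final) incubated 20 h at 27 °C in YESCA broth with UTI89 carrying a single-copy GFP reporter under the csgBAC intergenic promoter region, inoculum OD600 0.003. Fluorescence normalized to vehicle wells gave IC50 and 50%-of-vehicle concentration; OD600 reduction >10% flagged growth impact.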

[1] = read-out: Reporter Assay Abs IC50 (activity range), median Abs IC50 in the CsgA reporter assay, class symbol
[2] = read-out: Reporter Assay Abs IC50 (μM), median Abs IC50 in the CsgA reporter assay, N/A = maximum expression reduction is <50% of control

For `CN(C)Cc1c(Cc2cccc3ccccc23)c(-c2cccc(C(F)(F)F)c2)c2n(c1=O)C(C(=O)O)CS2` (centres unmarked) [Compound 075, 6-((dimethylamino)methyl)-7-(naphthalen-1-ylmethyl)-5-oxo-8-(3-(trifluoromethyl)phenyl)-2,3-dihydro-5H-thiazolo[3,2-a]pyridine-3-carboxylic acid], the IC50 [1] was 4.6 to 10 µM and the IC50 [2] was 5.6 µM.
In the case of `CN1CC(C(=O)O)n2c(c(-c3cccc(C(F)(F)F)c3)c(Cc3cccc4ccccc34)c(C(N)=O)c2=O)S1(=O)=O` (centres unmarked) [Compound 109, 7-carbamoyl-2-methyl-8-(naphthalen-1-ylmethyl)-6-oxo-9-(3-(trifluoromethyl)phenyl)-3,4-dihydro-2H,6H-pyrido[1,2-e][1,2,5]thiadiazine-4-carboxylic acid 1,1-dioxide], the IC50 [1] is reported as 1.3 to 4.5 µM and the IC50 [2] is reported as 1.9 µM.
With `CCc1c(Cc2cccc3ccccc23)c(-c2cccc(C(F)(F)F)c2)c2n(c1=O)C(C(=O)O)CN(C1CCCCC1)S2(=O)=O` (centres unmarked) [Compound 116, 2-cyclohexyl-7-ethyl-8-(naphthalen-1-ylmethyl)-6-oxo-9-(3-(trifluoromethyl)phenyl)-3,4-dihydro-2H,6H-pyrido[1,2-e][1,2,5]thiadiazine-4-carboxylic acid 1,1-dioxide] the IC50 [1] was 1.3 to 4.5 µM and the IC50 [2] was 1.5 µM.
With `CN1CC(C(=O)O)n2c1c(-c1cccc(C(F)(F)F)c1)c(Cc1cccc3ccccc13)c(Br)c2=O` (centres unmarked) [Compound 119, 6-bromo-1-methyl-7-(naphthalen-1-ylmethyl)-5-oxo-8-(3-(trifluoromethyl)phenyl)-1,2,3,5-tetrahydroimidazo[1,2-a]pyridine-3-carboxylic acid] the IC50 [1] was 1.3 to 4.5 µM and the IC50 [2] was 2.5 µM.
Work on `O=C(O)C1CN(CCCO)S(=O)(=O)c2c(-c3cccc(C(F)(F)F)c3)c(Cc3cccc4ccccc34)c(NC3CCCC3)c(=O)n21` (centres unmarked) [Compound 120, 7-(cyclopentylamino)-2-(3-hydroxypropyl)-8-(naphthalen-1-ylmethyl)-6-oxo-9-(3-(trifluoromethyl)phenyl)-3,4-dihydro-2H,6H-pyrido[1,2-e][1,2,5]thiadiazine-4-carboxylic acid 1,1-dioxide] yielded an IC50 [1] of 1.3 to 4.5 µM and an IC50 [2] of 3.1 µM.
Work on `O=C(O)C1CN(CCCCO)S(=O)(=O)c2c(-c3cccc(C(F)(F)F)c3)c(Cc3cccc4ccccc34)c(NC3CCCC3)c(=O)n21` (centres unmarked) [Compound 121, 7-(cyclopentylamino)-2-(4-hydroxybutyl)-8-(naphthalen-1-ylmethyl)-6-oxo-9-(3-(trifluoromethyl)phenyl)-3,4-dihydro-2H,6H-pyrido[1,2-e][1,2,5]thiadiazine-4-carboxylic acid 1,1-dioxide] yielded an IC50 [1] of 1.3 to 4.5 µM and an IC50 [2] of 2 µM.
Work on `O=C(O)C1CN(CCCCCO)S(=O)(=O)c2c(-c3cccc(C(F)(F)F)c3)c(Cc3cccc4ccccc34)c(NC3CCCC3)c(=O)n21` (centres unmarked) [Compound 122, 7-(cyclopentylamino)-2-(5-hydroxypentyl)-8-(naphthalen-1-ylmethyl)-6-oxo-9-(3-(trifluoromethyl)phenyl)-3,4-dihydro-2H,6H-pyrido[1,2-e][1,2,5]thiadiazine-4-carboxylic acid 1,1-dioxide] yielded an IC50 [1] of 1.3 to 4.5 µM and an IC50 [2] of 1.9 µM.
With `CC(C)N1CC(C(=O)O)n2c(c(-c3cccc(C(F)(F)F)c3)c(Cc3cccc4ccccc34)c(NC3CCCC3)c2=O)S1(=O)=O` (centres unmarked) [Compound 123, 7-(cyclopentylamino)-2-isopropyl-8-(naphthalen-1-ylmethyl)-6-oxo-9-(3-(trifluoromethyl)phenyl)-3,4-dihydro-2H,6H-pyrido[1,2-e][1,2,5]thiadiazine-4-carboxylic acid 1,1-dioxide] the IC50 [1] was 1.3 to 4.5 µM and the IC50 [2] was 3.3 µM.
In the case of `CCCN1CC(C(=O)O)n2c(c(-c3cccc(C(F)(F)F)c3)c(Cc3cccc4ccccc34)c(NC3CCCC3)c2=O)S1(=O)=O` (centres unmarked) [Compound 126, 7-(cyclopentylamino)-8-(naphthalen-1-ylmethyl)-6-oxo-2-propyl-9-(3-(trifluoromethyl)phenyl)-3,4-dihydro-2H,6H-pyrido[1,2-e][1,2,5]thiadiazine-4-carboxylic acid 1,1-dioxide], the IC50 [1] is reported as 1.3 to 4.5 µM and the IC50 [2] is reported as 1.9 µM.
In the case of `CCCN1CC(C(=O)O)n2c(c(-c3cccc(C(F)(F)F)c3)c(Cc3cccc4ccccc34)c(NC3CCOCC3)c2=O)S1(=O)=O` (centres unmarked) [Compound 127, 8-(naphthalen-1-ylmethyl)-6-oxo-2-propyl-7-((tetrahydro-2H-pyran-4-yl)amino)-9-(3-(trifluoromethyl)phenyl)-3,4-dihydro-2H,6H-pyrido[1,2-e][1,2,5] thiadiazine-4-carboxylic acid 1,1-dioxide], the IC50 [1] is reported as 4.6 to 10 µM and the IC50 [2] is reported as 4.8 µM.
